Results: the NIST ThermoML archive (doi:10.1016/j.fluid.2010.10.028)

Assay: xn = mol fraction of the nth substance listed
Conditions: Liquid, Vibrating tube method

CC(C)=O [acetone] + CCCCCCC
Conditions | mass density [kg/m3]
407.22 K, 24840 kPa, x1 = 0.492 | 637.87
407.22 K, 24850 kPa, x1 = 0.611 | 645.53
407.22 K, 24850 kPa, x1 = 0.801 | 663.77
407.22 K, 29850 kPa, x1 = 0.492 | 645.2
407.22 K, 29860 kPa, x1 = 0.801 | 671.47
407.22 K, 29870 kPa, x1 = 0.611 | 653.05
407.22 K, 34850 kPa, x1 = 0.801 | 678.52
407.22 K, 34860 kPa, x1 = 0.611 | 659.9
407.22 K, 39850 kPa, x1 = 0.801 | 685.05
407.22 K, 39860 kPa, x1 = 0.611 | 666.23
407.22 K, 44860 kPa, x1 = 0.801 | 691.11
407.22 K, 44870 kPa, x1 = 0.611 | 672.1
407.22 K, 49870 kPa, x1 = 0.611 | 677.58
407.22 K, 54850 kPa, x1 = 0.611 | 682.71
407.22 K, 59830 kPa, x1 = 0.611 | 687.58
407.22 K, 59840 kPa, x1 = 0.492 | 679.01
407.22 K, 59840 kPa, x1 = 0.801 | 707.14
407.22 K, 64930 kPa, x1 = 0.611 | 692.3
407.22 K, 69830 kPa, x1 = 0.801 | 716.45
407.22 K, 69920 kPa, x1 = 0.611 | 696.69
407.22 K, 74910 kPa, x1 = 0.611 | 700.88
407.22 K, 74920 kPa, x1 = 0.801 | 720.89
407.22 K, 79900 kPa, x1 = 0.611 | 704.88
407.22 K, 79920 kPa, x1 = 0.801 | 725.05
407.22 K, 84880 kPa, x1 = 0.611 | 708.71
407.22 K, 84890 kPa, x1 = 0.801 | 729.04
407.22 K, 89850 kPa, x1 = 0.611 | 712.41
407.22 K, 89860 kPa, x1 = 0.492 | 703.26
407.22 K, 89890 kPa, x1 = 0.801 | 732.88
407.22 K, 94740 kPa, x1 = 0.4 | 750.92
407.22 K, 94740 kPa, x1 = 0.8992 | 750.92
407.22 K, 94840 kPa, x1 = 0.611 | 715.96
407.22 K, 94870 kPa, x1 = 0.801 | 736.56
407.22 K, 99720 kPa, x1 = 0.4 | 754.58
407.22 K, 99720 kPa, x1 = 0.8992 | 754.58
407.22 K, 99820 kPa, x1 = 0.611 | 719.38
407.22 K, 99840 kPa, x1 = 0.801 | 740.12
407.22 K, 104690 kPa, x1 = 0.4 | 758.09
407.22 K, 104690 kPa, x1 = 0.8992 | 758.09
407.22 K, 104790 kPa, x1 = 0.611 | 722.68
407.22 K, 104820 kPa, x1 = 0.801 | 743.55
407.22 K, 109650 kPa, x1 = 0.4 | 761.5
407.22 K, 109650 kPa, x1 = 0.8992 | 761.5
407.22 K, 109770 kPa, x1 = 0.492 | 716.44
407.22 K, 109790 kPa, x1 = 0.801 | 746.89
407.22 K, 109860 kPa, x1 = 0.611 | 725.93
407.22 K, 114620 kPa, x1 = 0.4 | 764.8
407.22 K, 114620 kPa, x1 = 0.8992 | 764.8
407.22 K, 114770 kPa, x1 = 0.801 | 750.12
407.22 K, 114860 kPa, x1 = 0.492 | 719.55
407.22 K, 114870 kPa, x1 = 0.611 | 729.06
407.22 K, 119590 kPa, x1 = 0.4 | 768
407.22 K, 119590 kPa, x1 = 0.8992 | 768
407.22 K, 119840 kPa, x1 = 0.492 | 722.47
407.22 K, 119840 kPa, x1 = 0.801 | 753.32
407.22 K, 119850 kPa, x1 = 0.611 | 732.05
407.22 K, 124560 kPa, x1 = 0.4 | 771.11
407.22 K, 124560 kPa, x1 = 0.8992 | 771.11
407.22 K, 124850 kPa, x1 = 0.492 | 725.34
407.22 K, 124850 kPa, x1 = 0.611 | 735.01
407.22 K, 124850 kPa, x1 = 0.801 | 756.37
407.22 K, 129820 kPa, x1 = 0.4 | 774.33
407.22 K, 129820 kPa, x1 = 0.8992 | 774.33
407.22 K, 129840 kPa, x1 = 0.611 | 737.84
407.22 K, 129840 kPa, x1 = 0.801 | 759.34
407.23 K, 4820 kPa, x1 = 0.7024 | 611.92
407.23 K, 9850 kPa, x1 = 0.492 | 610.28
407.23 K, 14860 kPa, x1 = 0.492 | 620.71
407.23 K, 19860 kPa, x1 = 0.492 | 629.81
407.23 K, 24820 kPa, x1 = 0.7024 | 653.51
407.23 K, 29820 kPa, x1 = 0.7024 | 661.13
407.23 K, 34840 kPa, x1 = 0.492 | 651.87
407.23 K, 39860 kPa, x1 = 0.492 | 658.08
407.23 K, 44850 kPa, x1 = 0.492 | 663.81
407.23 K, 49840 kPa, x1 = 0.801 | 696.75
407.23 K, 49850 kPa, x1 = 0.492 | 669.19
407.23 K, 54850 kPa, x1 = 0.801 | 702.09
407.23 K, 54860 kPa, x1 = 0.492 | 674.25
407.23 K, 64830 kPa, x1 = 0.492 | 683.5
407.23 K, 64830 kPa, x1 = 0.801 | 711.9
407.23 K, 69930 kPa, x1 = 0.492 | 687.88
407.23 K, 74910 kPa, x1 = 0.492 | 691.98
407.23 K, 79890 kPa, x1 = 0.492 | 695.9
407.23 K, 84870 kPa, x1 = 0.492 | 699.66
407.23 K, 94840 kPa, x1 = 0.492 | 706.73
407.23 K, 99820 kPa, x1 = 0.492 | 710.09
407.23 K, 104790 kPa, x1 = 0.492 | 713.3
407.23 K, 129830 kPa, x1 = 0.492 | 728.11
407.24 K, 1620 kPa, x1 = 0.7024 | 602.1
407.24 K, 9830 kPa, x1 = 0.7024 | 624.8
407.24 K, 14840 kPa, x1 = 0.7024 | 635.66
